According to patent US20250368667A1, “USP1 INHIBITOR” (Shanghai Qilu Pharmaceutical Research and Development …, priority 2022, published 2025):

Target: recombinant human His6-USP1/His6-UAF1 composite protein (Homo sapiens (Human), UniProt O94782)
Assay: USP1 enzyme activity detection (Ub-Rho fluorescence)
Type: biochemical
Conditions: USP1/UAF1, Ub-Rho substrate 300 nM, 1 hour pre-incubation; read-out: IC50 (enzymatic inhibition of USP1)
Source text: USPli compounds were screened by USP1 enzyme activity detection experiment.
1.1 Experimental materials: recombinant human His6-USP1/His6-UAF1 composite protein. (R&D, catalog number E-568-050): Ubiquitin rhodamine 110 (Ub-Rho) (R&D, catalog number U-555-050); Fluorescent 384-well plate (Perkin Elmer, Art. No. 6007279).
1.2 Test sample: Compounds of table 3 in this application, whose structural formulae and preparation methods are shown in the above examples.
Using Equation (I) to fit data in Excel to obtain the inhibition value;
[formula] • wherein, the maximum signal value represents the luminous signal intensity of the positive control hole without adding the compound of the application; the minimum signal value represents the luminous signal intensity of the negative control hole without enzyme; and the target signal value represents the luminous signal intensity of the Test samples; and • fitting the data in XL-Fit with Equation (II) to obtain IC50 value:
[formula] • wherein Y is the inhibition rate, X is the concentration of the compound; Bottom is the lowest inhibition rate; Top is the highest inhibition rate; and HillSlope is the slope.

Chain of recombinant human His6-USP1/His6-UAF1 composite protein (O94782 whole entry): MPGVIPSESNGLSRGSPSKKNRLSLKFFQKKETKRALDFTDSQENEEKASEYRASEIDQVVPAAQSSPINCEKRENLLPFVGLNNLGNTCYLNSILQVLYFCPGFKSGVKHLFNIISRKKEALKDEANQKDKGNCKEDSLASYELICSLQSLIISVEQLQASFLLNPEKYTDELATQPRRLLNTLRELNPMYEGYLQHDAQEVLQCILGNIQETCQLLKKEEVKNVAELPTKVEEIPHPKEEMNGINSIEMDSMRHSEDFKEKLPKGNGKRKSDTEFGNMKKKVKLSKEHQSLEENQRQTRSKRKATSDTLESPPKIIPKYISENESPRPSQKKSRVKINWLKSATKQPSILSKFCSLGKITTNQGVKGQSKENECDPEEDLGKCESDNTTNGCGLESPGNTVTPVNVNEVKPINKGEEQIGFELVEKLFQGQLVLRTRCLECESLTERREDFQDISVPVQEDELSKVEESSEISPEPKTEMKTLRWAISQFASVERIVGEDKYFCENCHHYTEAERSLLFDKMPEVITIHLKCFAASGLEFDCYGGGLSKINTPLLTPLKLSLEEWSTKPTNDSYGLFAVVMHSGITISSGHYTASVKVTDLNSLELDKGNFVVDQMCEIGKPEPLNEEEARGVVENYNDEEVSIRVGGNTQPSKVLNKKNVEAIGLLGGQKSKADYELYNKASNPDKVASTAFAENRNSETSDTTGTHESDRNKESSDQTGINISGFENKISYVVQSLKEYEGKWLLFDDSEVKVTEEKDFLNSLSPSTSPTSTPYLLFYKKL
Chain of recombinant human His6-USP1/His6-UAF1 composite protein (Q8TAF3 whole entry partner): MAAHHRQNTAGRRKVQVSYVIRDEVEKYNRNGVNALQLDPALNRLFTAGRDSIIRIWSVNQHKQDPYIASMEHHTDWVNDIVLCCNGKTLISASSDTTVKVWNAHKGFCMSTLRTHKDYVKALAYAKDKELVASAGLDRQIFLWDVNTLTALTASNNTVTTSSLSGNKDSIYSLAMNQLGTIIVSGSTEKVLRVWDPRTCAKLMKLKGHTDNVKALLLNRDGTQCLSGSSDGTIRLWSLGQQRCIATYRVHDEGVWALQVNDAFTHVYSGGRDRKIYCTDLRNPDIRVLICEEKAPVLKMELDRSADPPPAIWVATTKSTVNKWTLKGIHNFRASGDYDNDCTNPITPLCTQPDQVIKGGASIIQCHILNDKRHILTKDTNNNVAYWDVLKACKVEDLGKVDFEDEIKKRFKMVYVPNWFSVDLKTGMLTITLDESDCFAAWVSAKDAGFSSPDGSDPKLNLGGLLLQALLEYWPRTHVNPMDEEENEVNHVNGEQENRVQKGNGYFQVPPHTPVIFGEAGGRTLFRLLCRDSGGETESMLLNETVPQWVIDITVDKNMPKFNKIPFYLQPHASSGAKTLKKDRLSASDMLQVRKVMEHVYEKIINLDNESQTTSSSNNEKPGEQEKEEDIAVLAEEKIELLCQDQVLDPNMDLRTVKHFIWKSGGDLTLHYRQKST

Question: For COc1ccc2c3cnc(-c4c(OC)ncnc4C4CC4)nc3n(Cc3ccc(-c4nc(C(F)(F)F)cn4C(C)C)cc3)c2c1 [Compound 7, 2-(4-cyclopropyl-6-methoxypyrimidin-5-yl)-9-(4-(1-isopropyl-4-(trifluoromethyl)-1H-imidazo 1-2-yl)benzyl)-7-methoxy-9H-pyrimido[4,5-b]indole], which IC50 is on record?
Answer: 5.81 nM

Question: With COc1ncnc(C2CC2)c1-c1ncc2c3cccc(F)c3n(Cc3ccc(-c4nc(C(F)(F)F)cn4C(C)C)cc3)c2n1 [Compound 6, 2-(4-cyclopropyl-6-methoxypyrimidin-5-yl)-8-fluoro-9-(4-(1-isopropyl-4-(trifluoromethyl)-1H-imidazol-2-yl)benzyl)-9H-pyrimido[4,5-b]indole] as the compound, how does the IC50 read?
Answer: 6.07 nM

Question: Which IC50 does the source give for COc1ncnc(C2CC2)c1-c1ncc2c3ccncc3n(Cc3ccc4c(c3)Cn3cc(C(F)(F)F)nc3-4)c2n1 [Compound 71] here?
Answer: 108 nM

Question: Which IC50 does the source give for CCn1cc(C(F)(F)F)nc1-c1ccc(Cn2c3cc(C(F)(F)F)ccc3c3cnc(-c4c(OC)ncnc4C4CC4)nc32)cc1 [Compound 45] here?
Answer: 4.4 nM

Question: With COc1ncnc(C2CC2)c1-c1ncc2c3c(F)cccc3n(Cc3ccc(-c4nc(C(F)(F)F)cn4C(C)C)cc3)c2n1 [Compound 4, 2-(4-cyclopropyl-6-methoxypyrimidin-5-yl)-5-fluoro-9-(4-(1-isopropyl-4-(trifluoromethyl)-1H-imidazol-2-yl)benzyl)-9H-pyrimido[4,5-b]indole] as the compound, how does the IC50 read?
Answer: 6.85 nM

Question: Which IC50 does the source give for COc1ncnc(C2CC2)c1-c1ncc2c3c(C#N)cccc3n(Cc3ccc(-c4nc(C(F)(F)F)cn4C)cc3)c2n1 [Compound 39] here?
Answer: 29.9 nM

Question: For COc1ncnc(C2CC2)c1-c1ncc2c3ccc(C#N)nc3n(Cc3ccc4c(c3)CCCn3cc(C(F)(F)F)nc3-4)c2n1 [Compound 140], which IC50 is on record?
Answer: 7.29 nM

Question: How did the IC50 turn out when COc1ncnc(C2CC2)c1-c1ncc2c3ccc(C(O)(C(F)(F)F)C(F)(F)F)cc3n(Cc3ccc(-c4nc(C(F)(F)F)cn4C)cc3)c2n1 [Compound 122] was run?
Answer: 36 nM

Question: COc1ncnc(C2CC2)c1-c1ncc2c3cc(F)cnc3n(Cc3ccc4c(c3)CCCn3cc(C(F)(F)F)nc3-4)c2n1 [Compound 146] was tested. Which IC50 did it give?
Answer: 11.6 nM

Question: COc1ncnc(C2CC2)c1-c1ncc2c3cc(C(F)(F)F)ccc3n(Cc3ccc(-c4nc(C(F)(F)F)cn4C(C)C)cc3)c2n1 [Compound 22] was tested. Which IC50 did it give?
Answer: 135 nM

Question: With COc1ncnc(C2CC2)c1-c1ncc2c3ccncc3n(Cc3ccc4c(c3)OCCn3cc(C(F)(F)F)nc3-4)c2n1 [Compound 76] as the compound, how does the IC50 read?
Answer: 25.3 nM

Question: How did the IC50 turn out when COc1ncnc(C2CC2)c1-c1ncc2c3ccc(P4(=O)CCCC4)cc3n(Cc3ccc(-c4nc(C(F)(F)F)c5n4CCC5)cc3)c2n1 [Compound 142] was run?
Answer: 6.2 nM

Question: For COc1ncnc(C2CC2)c1-c1ncc2c3ccc(NCCO)nc3n(Cc3ccc4c(c3)CCCn3cc(C(F)(F)F)nc3-4)c2n1 [Compound 97], which IC50 is on record?
Answer: 2.1 nM

Question: Which IC50 does the source give for COc1ncnc(C2CC2)c1-c1ncc2c3ccc(N(C)S(C)(=O)=O)cc3n(Cc3ccc(-c4nc(C(F)(F)F)cn4C)cc3)c2n1 [Compound 82] here?
Answer: 4.45 nM

Question: For COc1ncnc(C2CC2)c1-c1ncc2c3ccncc3n(Cc3ccc(-c4nc(C(F)(F)F)cn4C)cc3)c2n1 [Compound 78], which IC50 is on record?
Answer: 4.39 nM

Question: Which IC50 does the source give for COc1ncnc(C2CC2)c1-c1ncc2c3ccncc3n(Cc3ccc(-c4nc(C(F)(F)F)cn4C(C)C)cc3)c2n1 [Compound 29] here?
Answer: 4.62 nM

Question: COc1ncnc(C2CC2)c1-c1ncc2c3cn(C)nc3n(Cc3ccc(-c4nc(C(F)(F)F)c5n4CCC5)c(F)c3)c2n1 [Compound 143] was tested. Which IC50 did it give?
Answer: 4.67 nM

Question: For COc1ncnc(C2CC2)c1-c1ncc2c3cc(F)cnc3n(Cc3ccc(-c4nc(C(F)(F)F)cn4C)cc3)c2n1 [Compound 117], which IC50 is on record?
Answer: 3.54 nM

Question: For COc1ncnc(C2CC2)c1-c1ncc2c3ccc(N(C(C)C)S(C)(=O)=O)cc3n(Cc3ccc4c(c3)CCCn3cc(C(F)(F)F)nc3-4)c2n1 [Compound 99], which IC50 is on record?
Answer: 3.13 nM

Question: How did the IC50 turn out when COc1ncnc(C2CC2)c1-c1ncc2c3ccc(Cl)cc3n(Cc3ccc(-c4nc(C(F)(F)F)cn4C)cc3)c2n1 [Compound 54] was run?
Answer: 9.88 nM

Question: COc1ncnc(C2CC2)c1-c1ncc2c3ccncc3n(Cc3ccc4n3CCCn3cc(C(F)(F)F)nc3-4)c2n1 [Compound 68] was tested. Which IC50 did it give?
Answer: 39.2 nM

Question: Which IC50 does the source give for COc1ncnc(C2CC2)c1-c1ncc2c3cccnc3n(Cc3ccc(-c4nc(C(F)(F)F)cn4C(C)C)cc3)c2n1 [Compound 36] here?
Answer: 8.98 nM

Question: With COc1ncnc(C2CC2)c1-c1ncc2c3ccncc3n(Cc3ccc(-c4nc(C(F)(F)F)c(F)n4C)cc3)c2n1 [Compound 155] as the compound, how does the IC50 read?
Answer: 26 nM

Question: COc1ncnc(C2CC2)c1-c1ncc2c3ccc(C#N)cc3n(Cc3ccc(-c4nc(C(F)(F)F)c5ccccn45)cc3)c2n1 [Compound 126] was tested. Which IC50 did it give?
Answer: 7.1 nM

Question: With COc1ncnc(C2CC2)c1-c1ncc2c3c(n(Cc4ccc(-c5nc(C(F)(F)F)cn5C)cc4)c2n1)CCC3 [Compound 31] as the compound, how does the IC50 read?
Answer: 4.85 nM

Question: For COc1ncnc(C2CC2)c1-c1ncc2c3cn(C)nc3n(Cc3cc(F)c(-c4nc(C(F)(F)F)cn4C)c(F)c3)c2n1 [Compound 115], which IC50 is on record?
Answer: 3.03 nM

Question: COc1ncnc(C2CC2)c1-c1ncc2c3cc(C(C)(C)O)ccc3n(Cc3ccc(-c4nc(C(F)(F)F)cn4C)cc3)c2n1 [Compound 34] was tested. Which IC50 did it give?
Answer: 62 nM

Question: Which IC50 does the source give for CCn1cc(C(F)(F)F)nc1-c1ccc(Cn2c3ccccc3c3cnc(-c4c(OC)ncnc4C4CC4)nc32)cc1 [Compound 9, 2-(4-cyclopropyl-6-methoxypyrimidin-5-yl)-9-(4-(1-ethyl-4-(trifluoromethyl)-1H-imidazol-2-yl)benzyl)-9H-pyrimido[4,5-b]indole] here?
Answer: 4.07 nM

Question: With COc1cnn(C2CCC2)c1-c1ncc2c3ccncc3n(Cc3ccc(-c4nc(C(F)(F)F)cn4C)cc3)c2n1 [Compound 81] as the compound, how does the IC50 read?
Answer: 7.15 nM

Question: For COc1ncnc(C2CC2)c1-c1ncc2c3ccc(P4(=O)CCCC4)cc3n(Cc3ccc(-c4nc(C(F)(F)F)cn4C(C)C)cc3)c2n1 [Compound 109], which IC50 is on record?
Answer: 11.9 nM

Question: For COc1ncnc(C2CC2)c1-c1ncc2c3cccnc3n(Cc3ccc4c(c3)Cn3cc(C(F)(F)F)nc3-4)c2n1 [Compound 72], which IC50 is on record?
Answer: 42.9 nM

Question: Which IC50 does the source give for COc1ncnc(C2CC2)c1-c1ncc2c3cnccc3n(Cc3ccc(-c4nc(C(F)(F)F)cn4C)cc3)c2n1 [Compound 57] here?
Answer: 14.8 nM

Question: How did the IC50 turn out when COc1ncnc(C2CC2)c1-c1ncc2c3ccc(C(F)(F)F)cc3n(Cc3ccc(-c4nc(C(F)(F)F)cn4C(C)C)cc3)c2n1 [Compound 8, 2-(4-cyclopropyl-6-methoxypyrimidin-5-yl)-9-(4-(1-isopropyl-4-(trifluoromethyl)-1H-imidazo 1-2-yl)benzyl)-7-(trifluoroethyl)-9H-pyrimido[4,5-b]indole] was run?
Answer: 21 nM

Question: Which IC50 does the source give for COc1ncnc(C2CC2)c1-c1ncc2c3ccc(C#N)cc3n(Cc3ccc4c(c3)COCCn3cc(C(F)(F)F)nc3-4)c2n1 [Compound 92] here?
Answer: 25.9 nM

Question: With COc1ncnc(C2CC2)c1-c1ncc2c3cnn(C)c3n(Cc3ccc(-c4nc(C(F)(F)F)cn4C(C)C)cc3)c2n1 [Compound 106] as the compound, how does the IC50 read?
Answer: 4.56 nM

Question: With COc1ncnc(C2CC2)c1-c1ncc2c3cn(C)nc3n(Cc3ccc(-c4nc(C(F)(F)F)sc4C)cc3)c2n1 [Compound 131] as the compound, how does the IC50 read?
Answer: 4.68 nM

Question: Which IC50 does the source give for COc1ccc2c(c1)c1cnc(-c3c(OC)ncnc3C3CC3)nc1n2Cc1ccc(-c2nc(C(F)(F)F)cn2C(C)C)cc1 [Compound 33] here?
Answer: 26.1 nM

Question: How did the IC50 turn out when COc1ncnc(C2CC2)c1-c1ncc2c3ccncc3n(C3CCc4cc(-c5nc(C(F)(F)F)cn5C)ccc43)c2n1 (stereo not drawn) [Compound 124] was run?
Answer: 38.5 nM

Question: COc1ncnc(C2CC2)c1-c1ncc2c3cn(C)nc3n(Cc3ccc(-c4nc(C(F)(F)F)c5ccccn45)cc3)c2n1 [Compound 156] was tested. Which IC50 did it give?
Answer: 3.5 nM
